Test results: patent US20050267020A1, “Polypeptides derived from inducible hsp70 and pharmaceutical compositions containing the same” (priority 2001, published 2005)

Legend:
[1] = target: T1, HLA-A*0201/peptide complex (Homo sapiens, UniProt P04439, D140Y/D185E/D98H/E176V/E277Q/G131W/G231S/I119V/I121R/I166T/I218V/L300P/L318F/N151K/N90K/P208A/P217A/Q86G/Q94H/R138H/R169H/T345S); experiment: Assessment of peptide/HLA class I complex stability (DC50); format: binding; details: half life (DC50) of the HLA-A*0201/peptide complex
T1 construct: Tap−/− cells expressing the studied HLA-class I molecule; endogenous in cells; host or cells: T2 cells (Tap-/-, HLA-A*0201)
Experimental: Assessment of Peptide/HLA class I Complex Stability. Tap−/− cells (10^6/mL) were incubated overnight with 100 μM of each peptide in serum-free RPMI 1640 medium supplemented with 100 ng/mL of […] at 37° C. Cells were then washed four times to remove free peptide, incubated with Brefeldin A (10 μg/mL) for 1 hour to block cell surface expression of newly synthesized HLA molecules, washed and incubated at 37° C. for 0, 2, 4 or 6 hours. Subsequently, cells were stained with the HLA specific mAb followed by FITC conjugated goat anti mouse Ig mAb. For each time point, peptide induced HLA expression was calculated as: Mean fluorescence of peptide preincubated cells—Mean fluorescence of cells treated in similar conditions in the absence of peptide. DC50 (dissociation complex; DC) was defined as the time required for the loss of 50% of the HLA-A*0201/peptide complexes stabilized at t=0.
(§1) The affinity of each peptide was assayed experimentally by determination of the Relative Affinity: the necessary peptide dose to stabilise a reference quantity of HLA-A*0201 molecules at the surface of T2 cells; and the stability of each peptide was assayed by determination of the half-life of the peptide/HLA-A*0201 molecule complex (DC50: dissociation complex 50).

HLA-A*0201 = target: T2, HLA-A*0201 (Homo sapiens, UniProt P04439, D140Y/D185E/D98H/E176V/E277Q/G131W/G231S/I119V/I121R/I166T/I218V/L300P/L318F/N151K/N90K/P208A/P217A/Q86G/Q94H/R138H/R169H/T345S); experiment: Measurement of peptide relative affinity to HLA-A*0201 on T2 cells; format: binding; details: HLA-A*0201, T2 cells; ratio to reference peptide HIVpol 589; the lower the RA-value, the stronger the binding
T2 construct: Tap−/− cells expressing the studied HLA-class I molecule; endogenous in cells; host or cells: T2 cells (Tap-/-, HLA-A*0201)
Experimental: Measurement of Peptide Relative Affinity to HLA class I. Tap−/− cells expressing the studied HLA-class I molecule (3×10^5 cells/mL) were incubated with various concentrations of peptides ranging from 100 μM to 0.1 μM in serum-free RPMI 1640 medium supplemented with 100 ng/ml of human β-2m at 37° C. for 16 hours. Cells were then washed twice and stained with the specific anti-class I mAb followed by FITC conjugated goat anti mouse Ig mAb to quantify the expression of HLA-A*0201. For each peptide concentration, the HLA-specific staining was calculated as the % of the staining obtained with 100 μM of the reference peptide. The relative affinity (RA) is determined as: RA=(Concentration of each peptide that induces 20% of HLA expression/Concentration of the reference peptide that induces 20% of HLA expression). The lower the RA-value, the stronger is the peptide binding to HLA. The mean RA value for each peptide is determined from at least three independent experiments. […]
as §1

human CD8+ cells = experiment: Generation of CTL from human PBMC with peptide- or polyepitope-pulsed dendritic cells, intracellular IFN-γ staining; format: cell-based; details: CD8+ cells stimulated with peptide-loaded dendritic cells
Experimental: The three graphs entitled hCTL380, hCTL391 and hCTL393 represent respectively the testing of p380, p391 and p393-specific human CTLs. P391 and p393 specific CTLs were tested towards EBV-B cells, whereas p380 specific CTLs were tested towards T2 cells. The number of IFN-γ producing CD8+ cells for 10^5 CD8+ cells upon activation, indicated on the X-axis, was measured, as assessed by staining cells for CD8 and intracellular IFN-γ.
Polyepitope induced human CTL were tested for their capacity to respond to T2 cells loaded with p380, p391 or p393 or the irrelevant HIVpol589 peptides in intracellular IFN-γ staining. The X axis represents the number of IFNγ-producing CTL/10^5 CD8+ cells. On the Y axis, upper to lower bars represent the results obtained when cells were loaded respectively with irrelevant HIV pol589 peptides, or with p380, p391 or p393 peptides.
Generation of CTL from Human Peripheral Blood Mononuclear Cells (PBMC). Fresh PBMC collected from healthy donnors under informed consent were serologically typed for the studied HLA-class I molecule, and purified using standard Ficoll-Paque (Amersham Pharmacia Biotech AB). Dendritic cells (DC) were prepared by cultivating plastic adherent PBMC in the presence of 500 U/mL GM-CSF (R&D Systems Inc. MN) and 500 U/mL IL-4 (R&D Systems Inc. MN) for 7 days such as described in Keogh et al. (30).
DC were then maturated for 2 days with 2 μg/mL anti-CD40 antibody and 100 ng/mL Poly I:C (Sigma-Aldrich). […] Autologous CD8+ purified T-cells (CD8 MicroBeads, Miltneyi Biotec Inc. CA) were stimulated weekly with DC pulsed for two hours with peptide (10 μM) and irradiated at 35Gy at a T:DC ratio of 10:1 in culture medium (CM; RPMI 1640 supplemented with 10% human AB serum, […] L-glutamine and gentamycin). 1×10^3 U/mL IL-6 and SU/mL IL-12 (R&D Systems Inc. MN) were added during the first week of culture. 20 U/mL clinical grade IL-2 (Proleukin, Chiron Corp.) and 10 ng/mL IL-7 (R&D Systems Inc. MN) were added during the next two weeks of culture. 7 days after the last stimulation with DC, peptide specific IFN-γ secreting CD8+ T cells were magnetically sorted following encounter of the peptide presented by HLA-A*0201+ B-EBV cells (IFN-γ Secretion Assay, Miltenyi Biotec Inc. CA). The characterization of peptide-specific T cells was tested 7 days after the purification step.
Intracellular IFN-g Staining. 5×10^4 T cells were incubated with 10^5 stimulating peptide loaded EBV-B cells or with 10^5 tumor cells in the presence of 20 μg/ml brefeldin-A (Sigma, Oakville, Canada). Six hours later, they were washed, stained with r-phycoerythrin-conjugated anti-CD8 antibody (Caltag Laboratories, Burlingame, Calif.) in PBS for 25 min at 4° C., washed and fixed with 4% PFA. Then, cells were permeabilized with PBS 0.5% BSA 0.2% saponin (Sigma, Oakville, Canada), and stained with allophycocyanin-conjugated anti-IFNg mAb (PharMingen, Mississauga, Canada) for 25 min at 4° C. Cells were analyzed on FACSCalibur (Becton Dickinson, Mountain View, Calif.).

[2] = tested on: MCF-7 and SAOS tumor cell lines; experiment: Recognition by murine CTL of epitopes at the surface of human tumor cells, TNF-α secretion assay; format: cell-based; details: HLA-A*0201+ Hsp70+ tumor cells
Text: CTL recognition of tumoral cells is expressed as CTL secretion of TNF-α dosed in supernatant (X Axis, TNF-α ranges from 0 to 1000 pg/ml) after contact with the cells. Upper to lower bars represent the different cells and reagents in contact with CTL, respectively: 2 negative controls (M113, M44), SAOS, MCF-7, MCF-7 blocked with anti-class I (w6/32) antibody before mixed culture, and MCF-7 blocked with an irrelevant antibody before mixed culture.
(§2) TNF-α Secretion Assay. Transfected COS cells on day 4 or 10^5 target tumor cells were plated in 50 μL RPMI 10% FCS and when necessary incubated with 10 μM peptide for 1 hour. In blocking experiments, anti-HLA class I antibody w6/32 or an irrelevant antibody were incubated with target cells for 1 h30. 5×10^4 T cells were then added in 50 μL RPMI 10% FCS and incubated for 6 hours. Each condition was tested in quadruplicates. 50 μL of the supernatant was collected. Standard dilutions were prepared in 50 μL with final doses of TNF-α (kindly provided by I. Apfler, Bender Wien, Austria) ranging from 10^4 to 0.08 pg/mL. On both the supernatants and the standards were added 50 μL of 3×10^4 TNF-α sensitive WEHI-164c13 cells. They were incubated for 16 hours at 37° C. (23). Inhibition of cell proliferation was evaluated by the MTT colorimetric method. Briefly, 50 μL of MTT at 2.5 mg/mL (Sigma-Aldrich) was added and incubated for 4 hours at 37° C. Cells were then lyzed with 100 μL of a pH4.7 33% N,N-dimethyl formamide (Sigma-Aldrich) 20% SDS solution in water. Two hours after cells lysis, OD was measured at 550 nm on a Dynatech MR5000 spectrophotometer. TNF-α quantitation was calculated by linear interpolation with the standard dilutions.
We studied whether the over-expression of Hsp70 described in certain tumor cell lines was high enough to enable these epitopes to be presented at the surface of tumor cells. We addressed this question with our already available high-avidity murine CTLs, hypothesizing that such a high CTL avidity enables the recognition of the highest-Hsp70 expressing human tumor cells. […]

[3] = tested on: COS cells transfected with both Hsp70 and HHD expression vectors; experiment: Peptide processing assay on COS-transfected cells, TNF-α secretion by murine CTL; format: cell-based, simian
Text: After contact of murine CTL lines with transfected COS cell, CTL recognition of COS cells is expressed as CTL secretion of TNF-α dosed in supernatant (X Axis, TNF-α ranges from 0 to 500 pg/ml). The graphs represent TNF-α dosage by cytotoxic cell lines, respectively mCTL380, mCTL391 mCTL393 and mCTL134, after contact with COS cells. In each graph, upper to lower bars represent the different cells in contact with CTL, respectively: negative control (no COS cell), COS cells, COS cells transfected with Hsp70 expression plasmid, COS cells transfected with HHD expression plasmid, positive control (COS cells transfected with HHD and pulsed with the respective peptide), COS cells transfected with HHD and with Hsp70 expression plasmids.
Peptide Processing Assay on COS-Transfected Cells. 2.2×10^4 simian COS cells were plated in flat-bottom 96 well plates in DMEM 10% FCS, in quadruplicates for each condition. 18 hours later, the medium is discarded, and 100 ng of each DNA plasmid, encoding for Hsp70 and HLA class I molecules, is put in contact with COS cells in DMEM 10% Nuserum […] Chloroquine 10 mg/mL DEAE Dextran. After 4 hours of incubation at 37° C., transfection medium is discarded, and 50 μL PBS 10% DMSO is added for 2 minutes for integration of plasmids. It is then discarded and transfected COS cells are placed in DMEM 10% FCS for 40 hours. Transfected COS cells are then used with 5×10^4 murine CTL in a TNF-α secretion assay.
as §2

HHD mice = experiment: Generation of CTL in HLA-A*0201 transgenic HHD mice (immunogenicity); format: in vivo, mouse
Experimental: Generation of CTL in HLA-transgenic mice. HLA-transgenic mice were injected subcutaneously at the base of the tail with 100 μg of peptide emulsified in incomplete Freund's adjuvant (IFA) in the presence of 140 μg of the I-A^b restricted HBVcore-derived T-helper epitope (128-140; sequence TPPAYRPPNAPIL). After 11 days, spleen cells (5×10^7 cells in 10 mL) were stimulated in vitro with peptide (10 μM). On day 6 of culture, the bulk responder populations were tested for specific cytotoxicity. Upon response, the CTL line was then weekly re-stimulated in vitro with 20×10^6 35Gy irradiated spleen cells in the presence of 1 to 0.1 μM peptide and 50 U/mL IL-2 (Proleukin, Chiron Corp.). Cytotoxicity was assayed 6 days after the last stimulation and TNF-α secretion 11-13 days after, with the addition of 50 U/mL IL-2 on day 7. HHD mice transgenic for HLA-A*0201 were used. B7B7 Kd mice and mice transgenic for HLA-A*0301 are used for the study of the HLA-B*0701 and HLA-A*0301 restricted peptides respectively.

SLFEGIDFYT [HSP 286]
Stability (hrs) [1]: >6 h hrs

LIGRKFGDPV [HSP 73]
Relative affinity (HLA-A*0201): >20

LLDVAPLSL [HSP 393]
induction of specific human CTL (human CD8+ cells): capable of stimulating specific human CTL
presentation of the epitope at the surface of Hsp70 over-expressing human tumor cells [2]: epitope correctly presented at the surface of Hsp70 over-expressing tumors
processing of the peptide: recognition of Hsp70 + HHD transfected COS cells by the specific murine CTL line [3]: are epitopes
induction of specific cytotoxic T cell immune response in HHD mice (HHD mice): capable of generating a specific cytotoxic T cell immune response
